SMILES strings stand for the structures.

For this assay, the system named is 786-O tumor (human renal clear cell adenocarcinoma cells). Briefly: Competitive inhibition assay in 786-O mouse model. The class given is in vivo, NOD-SCID mice. To be noted: cold medicament 40 times the mass of hot medicament, 30 minutes before; scan 1 hour. The source says:
The experimental 786-O animal model was provided by Biaodu Baiao Biotechnology (Shanghai) Co., Ltd. The model was a 786-O tumor subcutaneous heterotopic transplant tumor model established based on NOD-SCID mice. This model was a mouse model constructed for human renal clear cell adenocarcinoma cells. Two animal models were randomly selected and injected with cold medicament NYM0005 through tail vein. The injection dose was 40 times the mass of the injected hot medicament (^68Ga-NYM0005). The order of administration was as follow: injecting the hot medicament ^68Ga-NYM0005 30 minutes after the administration of the cold medicament. After pre-anesthesia with an appropriate concentration of isoflurane/oxygen mixed gas prior to scanning, the animals were placed in a MicroPET/CT imaging cabin (SNPC-303 SuperNova, Pingsheng Medical Technology (Kunshan) Co., Ltd.), and anesthesia was maintained with isoflurane/air mixed gas. A MicroPET/CT scan was performed 1 hour after the administration of the hot medicament. The scanned images were obtained after reconstruction by means of the device software, and the scanned images were analyzed using PMOD software.

For `NS(=O)(=O)c1nnc(NC(=O)CCCc2cn(CCCCC(=O)N[C@@H](CC(=O)O)C(=O)NCCCCNC(=O)CN3CCN(CC(=O)O)CCN(CC(=O)O)CC3)nn2)s1` [NYM005], the “blocking of 68Ga-NYM005 uptake of the tumor by cold medicament” value was “significantly block”.

These data come from patent US12564650B2, “Carbonic anhydrase IX-targeting radioactive diagnostic and therapeutic medicament and method for preparing same” (NORROY BIOSCIENCE CO., LTD., priority 2022, dated 2026).
